# Test system: axillary malodour
# Assay: Deodorancy of pro-perfumes compared with their breakdown products
# Format: in vivo
# Conditions: pro perfumes that undergo scission when exposed to UV light; no data given
# Description: The effectiveness of compositions of the present invention comprising 2-Ethoxy-4-formylphenyl (E)-3-(2-hydroxyphenyl) acrylate and/or (E)-Dec-9-enyl 3-(2-hydroxyphenyl) acrylate, two group A materials, in axillary malodour counteracting deodorant is particularly surprising. These materials are pro perfumes that undergo scission into other compounds when exposed to UV light, this is disclosed in EP 936211. The use of materials that require light activation is counter-intuitive for application in underarm products such as deodorants and antiperspirants.
row,SMILES,deodorancy relative to breakdown products
1,CCOc1cc(C=O)ccc1OC(=O)/C=C/c1ccccc1O [2-Ethoxy-4-formylphenyl (E)-3-(2-hydroxyphenyl)acrylate],better deodorancy than their breakdown products
2,C=CCCCCCCCCOC(=O)/C=C/c1ccccc1O [(E)-Dec-9-enyl 3-(2-hydroxyphenyl)acrylate],better deodorancy than their breakdown products

# Source: patent US9125828B2, “MOC compositions” (Givaudan SA, priority 2010, dated 2015)
